Values after ≈ are worked out from the molar mass of the structure shown.
Tests used:
[1] = Selectivity index, ratio of IC50 for cytotoxicity against human HepG2 cells to IC50 for antimalarial activity against chloroquine-sensitive plasmodium falciparum 3D7 infected in human erythrocytes; type: toxicity, cell-based; settings: read-out: Ratio IC50
HepG2 = assay: Cytotoxicity against human HepG2 cells assessed as inhibition of cell growth measured after 72 hrs by resazurin dye based fluorescence assay; settings: HepG2, 72 h
Plasmodium falciparum = assay: Antimalarial activity against chloroquine-sensitive plasmodium falciparum 3D7 infected in human erythrocytes assessed as parasite growth inhibition measured after 72 hrs by SYBR green dye based fluorescence analysis; type: functional, organism-based; settings: 3D7, Erythrocyte
[2] = Effective permeability of the compound in PBS at pH 7.4 at 10 uM incubated for 5 hrs by PAMPA based UPLC-MS/MS analysis; type: ADME; settings: read-out: permeability
[3] = molecular target: ERK1 (Mitogen-activated protein kinase 3) (Homo sapiens, UniProt P27361); assay: Inhibition of human ERK1 at 1 uM measured after 30 mins by [gamma-33P]-ATP assay
[4] = Aqueous solubility of compound in PBS at pH 7.4 by HPLC-UV analysis; type: physicochemical
[5] = molecular target: VEGFR1 (Vascular endothelial growth factor receptor 1) (Homo sapiens, UniProt P17948); assay: Inhibition of human VEGFR1 at 1 uM measured after 30 mins by [gamma-33P]-ATP assay; settings: human VEGFR1 kinase
Chain of VEGFR1 (Vascular endothelial growth factor receptor 1) (P17948 whole entry): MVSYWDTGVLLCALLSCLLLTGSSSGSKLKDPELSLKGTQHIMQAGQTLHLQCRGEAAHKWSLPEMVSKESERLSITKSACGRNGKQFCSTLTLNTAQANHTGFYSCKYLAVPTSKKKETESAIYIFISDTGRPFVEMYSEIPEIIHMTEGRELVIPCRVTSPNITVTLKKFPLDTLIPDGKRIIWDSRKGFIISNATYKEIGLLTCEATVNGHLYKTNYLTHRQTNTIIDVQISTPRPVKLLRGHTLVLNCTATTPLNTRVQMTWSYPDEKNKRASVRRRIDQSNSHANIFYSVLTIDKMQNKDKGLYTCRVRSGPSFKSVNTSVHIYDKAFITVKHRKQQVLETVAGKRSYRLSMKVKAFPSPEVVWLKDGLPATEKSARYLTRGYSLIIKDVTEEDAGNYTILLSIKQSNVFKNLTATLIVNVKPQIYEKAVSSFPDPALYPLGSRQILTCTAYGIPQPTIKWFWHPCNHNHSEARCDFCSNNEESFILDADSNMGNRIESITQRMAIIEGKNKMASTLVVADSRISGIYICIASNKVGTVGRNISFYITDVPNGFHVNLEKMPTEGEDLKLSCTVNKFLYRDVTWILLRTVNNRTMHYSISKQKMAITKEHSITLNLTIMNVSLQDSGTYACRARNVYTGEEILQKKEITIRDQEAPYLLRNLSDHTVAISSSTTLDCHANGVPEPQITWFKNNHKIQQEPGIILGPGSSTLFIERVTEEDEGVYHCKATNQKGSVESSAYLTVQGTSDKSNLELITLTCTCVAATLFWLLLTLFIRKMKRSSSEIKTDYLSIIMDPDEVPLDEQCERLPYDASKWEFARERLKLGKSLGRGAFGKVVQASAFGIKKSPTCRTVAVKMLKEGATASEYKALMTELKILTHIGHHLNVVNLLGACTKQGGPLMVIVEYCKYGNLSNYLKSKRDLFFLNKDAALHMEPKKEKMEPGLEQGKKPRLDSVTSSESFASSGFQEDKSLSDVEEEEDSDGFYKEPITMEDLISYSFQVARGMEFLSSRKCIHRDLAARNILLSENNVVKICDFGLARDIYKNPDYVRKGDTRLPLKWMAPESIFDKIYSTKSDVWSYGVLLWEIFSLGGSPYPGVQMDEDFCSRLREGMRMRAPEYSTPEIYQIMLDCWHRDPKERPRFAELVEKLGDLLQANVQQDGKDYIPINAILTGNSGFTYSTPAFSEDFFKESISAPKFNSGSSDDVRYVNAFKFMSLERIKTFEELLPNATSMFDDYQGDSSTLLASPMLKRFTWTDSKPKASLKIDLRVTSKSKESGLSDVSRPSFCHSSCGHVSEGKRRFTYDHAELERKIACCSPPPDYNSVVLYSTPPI

[6] = molecular target: MEKK1 (Mitogen-activated protein kinase kinase kinase 1) (Homo sapiens, UniProt Q13233); assay: Inhibition of human MEKK1 at 1 uM measured after 30 mins by [gamma-33P]-ATP assay
Chain of MEKK1 (Mitogen-activated protein kinase kinase kinase 1) (Q13233 whole entry): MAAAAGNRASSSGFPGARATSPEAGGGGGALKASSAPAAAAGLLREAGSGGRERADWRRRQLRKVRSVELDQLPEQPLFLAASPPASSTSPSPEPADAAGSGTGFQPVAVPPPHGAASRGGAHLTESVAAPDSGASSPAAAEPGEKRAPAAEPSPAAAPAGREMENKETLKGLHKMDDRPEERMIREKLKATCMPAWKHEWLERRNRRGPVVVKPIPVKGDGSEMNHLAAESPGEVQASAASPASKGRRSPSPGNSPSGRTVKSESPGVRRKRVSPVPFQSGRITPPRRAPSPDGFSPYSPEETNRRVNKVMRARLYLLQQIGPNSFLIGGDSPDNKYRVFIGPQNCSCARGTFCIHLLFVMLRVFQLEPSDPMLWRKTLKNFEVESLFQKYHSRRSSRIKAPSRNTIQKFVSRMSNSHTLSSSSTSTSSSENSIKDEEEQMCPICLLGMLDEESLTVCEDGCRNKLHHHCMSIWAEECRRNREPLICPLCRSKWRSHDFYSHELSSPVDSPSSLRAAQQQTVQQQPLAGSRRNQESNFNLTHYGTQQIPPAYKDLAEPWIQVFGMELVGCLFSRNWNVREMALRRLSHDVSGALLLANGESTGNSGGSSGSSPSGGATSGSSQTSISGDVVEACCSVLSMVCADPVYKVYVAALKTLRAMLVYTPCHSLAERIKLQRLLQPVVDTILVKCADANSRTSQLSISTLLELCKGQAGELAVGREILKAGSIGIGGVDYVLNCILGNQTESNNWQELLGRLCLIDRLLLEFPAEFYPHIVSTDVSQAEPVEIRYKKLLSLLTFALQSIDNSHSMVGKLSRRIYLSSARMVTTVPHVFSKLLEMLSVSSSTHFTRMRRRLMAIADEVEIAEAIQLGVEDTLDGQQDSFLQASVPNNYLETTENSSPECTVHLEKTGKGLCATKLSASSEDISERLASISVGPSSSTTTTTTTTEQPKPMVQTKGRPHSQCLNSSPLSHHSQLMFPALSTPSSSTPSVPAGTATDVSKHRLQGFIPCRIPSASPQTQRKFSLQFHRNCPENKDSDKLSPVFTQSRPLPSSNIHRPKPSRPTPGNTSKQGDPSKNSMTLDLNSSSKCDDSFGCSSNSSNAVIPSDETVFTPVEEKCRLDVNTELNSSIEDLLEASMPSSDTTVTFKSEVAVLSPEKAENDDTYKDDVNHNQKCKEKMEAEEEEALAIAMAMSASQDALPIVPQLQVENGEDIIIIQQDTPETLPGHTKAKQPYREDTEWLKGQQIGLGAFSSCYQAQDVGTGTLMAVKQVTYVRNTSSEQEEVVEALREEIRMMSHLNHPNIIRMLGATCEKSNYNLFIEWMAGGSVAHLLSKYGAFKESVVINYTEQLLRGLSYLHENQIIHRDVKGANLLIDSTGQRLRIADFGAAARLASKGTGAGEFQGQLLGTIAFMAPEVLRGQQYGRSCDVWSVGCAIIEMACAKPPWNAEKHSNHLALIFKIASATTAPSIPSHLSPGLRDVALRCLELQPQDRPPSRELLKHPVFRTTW

[7] = molecular target: PIM1 (Serine/threonine-protein kinase pim-1) (Homo sapiens, UniProt P11309); assay: Inhibition of human PIM1 at 1 uM measured after 30 mins by [gamma-33P]-ATP assay
Chain of PIM1 (Serine/threonine-protein kinase pim-1) (P11309 whole entry): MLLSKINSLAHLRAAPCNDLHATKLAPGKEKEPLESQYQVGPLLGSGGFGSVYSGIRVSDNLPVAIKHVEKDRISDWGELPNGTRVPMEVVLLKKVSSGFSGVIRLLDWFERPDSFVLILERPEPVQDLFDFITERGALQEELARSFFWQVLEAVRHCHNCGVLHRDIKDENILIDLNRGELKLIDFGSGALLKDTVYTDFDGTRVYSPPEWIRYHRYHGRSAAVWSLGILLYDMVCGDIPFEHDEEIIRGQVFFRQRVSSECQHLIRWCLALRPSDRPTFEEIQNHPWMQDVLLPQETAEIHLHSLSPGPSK

[8] = molecular target: CDK2 (Cyclin-dependent kinase 2) (Homo sapiens, UniProt P24941); assay: Inhibition of human CDK2 at 1 uM measured after 30 mins by [gamma-33P]-ATP assay
[9] = molecular target: T1, JAK3 (Tyrosine-protein kinase JAK3) (Homo sapiens, UniProt P52333); assay: Inhibition of human JAK3 at 1 uM measured after 30 mins by [gamma-33P]-ATP assay
T1 sequence (P52333 whole entry): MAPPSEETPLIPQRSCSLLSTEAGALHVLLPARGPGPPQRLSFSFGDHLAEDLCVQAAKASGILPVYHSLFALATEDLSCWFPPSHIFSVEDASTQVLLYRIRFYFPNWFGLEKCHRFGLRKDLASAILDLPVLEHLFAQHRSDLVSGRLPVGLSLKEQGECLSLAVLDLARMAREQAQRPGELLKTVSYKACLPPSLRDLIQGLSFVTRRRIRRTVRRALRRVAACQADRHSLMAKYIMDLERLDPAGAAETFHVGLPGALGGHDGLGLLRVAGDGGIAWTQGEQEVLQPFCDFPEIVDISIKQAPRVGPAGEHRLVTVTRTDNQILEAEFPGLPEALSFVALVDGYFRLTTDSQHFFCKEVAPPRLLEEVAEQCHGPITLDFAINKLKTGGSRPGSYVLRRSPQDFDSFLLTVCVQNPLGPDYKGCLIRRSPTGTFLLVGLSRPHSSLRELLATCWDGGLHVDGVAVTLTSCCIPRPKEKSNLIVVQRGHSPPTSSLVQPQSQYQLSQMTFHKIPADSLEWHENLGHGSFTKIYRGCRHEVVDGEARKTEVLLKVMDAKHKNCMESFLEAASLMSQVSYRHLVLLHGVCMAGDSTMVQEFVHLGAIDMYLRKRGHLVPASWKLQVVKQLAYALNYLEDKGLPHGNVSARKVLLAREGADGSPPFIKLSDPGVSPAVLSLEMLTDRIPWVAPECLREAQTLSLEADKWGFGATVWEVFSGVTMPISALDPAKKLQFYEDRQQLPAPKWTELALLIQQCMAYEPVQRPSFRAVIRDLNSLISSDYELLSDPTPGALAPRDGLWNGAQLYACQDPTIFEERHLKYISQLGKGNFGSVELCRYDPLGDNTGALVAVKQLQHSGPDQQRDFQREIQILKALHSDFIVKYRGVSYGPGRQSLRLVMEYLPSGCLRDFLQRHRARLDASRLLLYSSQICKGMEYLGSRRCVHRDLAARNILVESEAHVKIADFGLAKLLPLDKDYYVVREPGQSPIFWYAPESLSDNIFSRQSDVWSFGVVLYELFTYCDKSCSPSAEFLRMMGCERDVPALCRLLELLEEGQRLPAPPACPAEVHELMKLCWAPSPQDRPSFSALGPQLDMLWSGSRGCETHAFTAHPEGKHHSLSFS

[10] = molecular target: HER4 (Receptor tyrosine-protein kinase erbB-4) (Homo sapiens, UniProt Q15303); assay: Inhibition of human HER4 at 1 uM measured after 30 mins by [gamma-33P]-ATP assay
Chain of HER4 (Receptor tyrosine-protein kinase erbB-4) (Q15303 whole entry): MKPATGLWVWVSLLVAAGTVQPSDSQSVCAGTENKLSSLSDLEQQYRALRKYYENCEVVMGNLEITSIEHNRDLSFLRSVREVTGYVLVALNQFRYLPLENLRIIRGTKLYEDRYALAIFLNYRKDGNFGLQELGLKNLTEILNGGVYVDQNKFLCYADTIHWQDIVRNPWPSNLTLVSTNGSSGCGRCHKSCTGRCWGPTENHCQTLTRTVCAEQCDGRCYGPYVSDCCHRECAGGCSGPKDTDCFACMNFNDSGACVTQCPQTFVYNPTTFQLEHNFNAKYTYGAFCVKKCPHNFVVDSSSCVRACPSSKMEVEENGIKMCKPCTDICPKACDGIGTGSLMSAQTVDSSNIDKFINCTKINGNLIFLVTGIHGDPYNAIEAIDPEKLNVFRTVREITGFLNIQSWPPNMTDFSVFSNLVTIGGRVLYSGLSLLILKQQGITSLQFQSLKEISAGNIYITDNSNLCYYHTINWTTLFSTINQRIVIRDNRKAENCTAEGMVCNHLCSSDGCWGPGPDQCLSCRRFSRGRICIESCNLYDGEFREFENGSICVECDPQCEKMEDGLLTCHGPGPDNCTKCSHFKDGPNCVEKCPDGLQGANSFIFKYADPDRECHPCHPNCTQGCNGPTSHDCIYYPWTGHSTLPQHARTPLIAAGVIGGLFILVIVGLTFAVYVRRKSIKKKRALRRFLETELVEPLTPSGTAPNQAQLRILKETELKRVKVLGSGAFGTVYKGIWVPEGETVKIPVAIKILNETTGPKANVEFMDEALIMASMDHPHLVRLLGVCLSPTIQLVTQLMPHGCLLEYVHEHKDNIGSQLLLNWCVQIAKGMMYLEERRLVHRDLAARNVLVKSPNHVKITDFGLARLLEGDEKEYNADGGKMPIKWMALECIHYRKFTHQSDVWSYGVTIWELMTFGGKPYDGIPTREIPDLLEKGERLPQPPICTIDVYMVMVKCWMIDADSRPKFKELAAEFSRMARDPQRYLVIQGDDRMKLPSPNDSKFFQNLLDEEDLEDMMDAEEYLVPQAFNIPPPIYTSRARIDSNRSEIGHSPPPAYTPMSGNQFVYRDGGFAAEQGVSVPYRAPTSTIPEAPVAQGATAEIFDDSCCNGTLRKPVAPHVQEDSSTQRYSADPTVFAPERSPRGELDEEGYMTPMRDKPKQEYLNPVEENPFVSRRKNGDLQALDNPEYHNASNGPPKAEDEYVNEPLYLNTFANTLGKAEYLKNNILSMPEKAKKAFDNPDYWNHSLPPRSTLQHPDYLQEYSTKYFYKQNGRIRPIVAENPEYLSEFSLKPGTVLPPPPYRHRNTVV

[11] = 1-octanol/water partition coefficient, logD of the compound at pH 7.4 measured after 6 hrs by shake flask technique based HPLC-UV analysis; type: physicochemical
[12] = Intrinsic clearance in human liver microsomes at 0.5 uM in the presence of NADPH measured upto 30 mins by UPLC-MS/MS analysis; type: ADME, Microsome; settings: 0.5 h
[13] = molecular target: JNK1 (Mitogen-activated protein kinase 8) (Homo sapiens, UniProt P45983); assay: Inhibition of human JNK1 at 1 uM measured after 30 mins by [gamma-33P]-ATP assay
Chain of JNK1 (Mitogen-activated protein kinase 8) (P45983 whole entry): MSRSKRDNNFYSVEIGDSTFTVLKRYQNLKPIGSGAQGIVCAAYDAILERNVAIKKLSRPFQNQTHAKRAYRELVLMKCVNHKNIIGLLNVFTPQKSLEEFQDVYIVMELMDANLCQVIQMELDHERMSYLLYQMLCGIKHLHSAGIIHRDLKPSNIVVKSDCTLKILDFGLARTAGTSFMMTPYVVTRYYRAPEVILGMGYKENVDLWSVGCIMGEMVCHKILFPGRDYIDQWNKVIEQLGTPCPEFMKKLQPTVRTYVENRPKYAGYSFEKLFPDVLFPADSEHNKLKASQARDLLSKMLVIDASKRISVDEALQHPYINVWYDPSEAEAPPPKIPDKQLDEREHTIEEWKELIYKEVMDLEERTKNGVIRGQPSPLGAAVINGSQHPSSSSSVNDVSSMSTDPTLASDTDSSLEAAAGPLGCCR

Aurora kinase A = molecular target: T2, Aurora kinase A (Homo sapiens, UniProt O14965); assay: Inhibition of human Aurora A at 1 uM measured after 30 mins by [gamma-33P]-ATP assay
T2 sequence (O14965 whole entry): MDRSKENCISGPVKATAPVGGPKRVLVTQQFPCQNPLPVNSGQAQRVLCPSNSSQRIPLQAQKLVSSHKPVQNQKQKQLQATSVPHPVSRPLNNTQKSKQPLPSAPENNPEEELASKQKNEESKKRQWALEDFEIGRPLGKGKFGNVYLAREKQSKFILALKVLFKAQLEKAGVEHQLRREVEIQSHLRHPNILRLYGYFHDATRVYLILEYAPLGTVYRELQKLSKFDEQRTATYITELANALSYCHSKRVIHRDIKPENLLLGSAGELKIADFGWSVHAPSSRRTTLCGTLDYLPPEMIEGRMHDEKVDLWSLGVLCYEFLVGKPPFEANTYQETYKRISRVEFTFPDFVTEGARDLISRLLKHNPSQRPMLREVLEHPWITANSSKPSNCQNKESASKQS

[14] = Cytotoxicity against human HepG2 cells assessed as inhibition of cell viability relative to control; type: cell-based; settings: read-out: INH

SMILES | selectivity ratio [1] | IC50 (HepG2) [µM] | IC50 (Plasmodium falciparum) [µM] | other results
Cc1cccc(Nc2ncc(C)c(Nc3ccc4nc[nH]c4c3)n2)c1 | 8.6 | 6.6 | 0.77 | –
Cc1cccc(Nc2nccc(Nc3ccc4nc[nH]c4c3)n2)c1 | 20 | 20 | 0.98 | –
CN1CCN(c2cccc(Nc3nccc(Nc4ccc5cn[nH]c5c4)n3)c2)CC1 | 6.1 | 6.7 | 1.1 | –
Cc1c2ccc(Nc3ccnc(Nc4cccc(S(N)(=O)=O)c4)n3)cc2nn1C | 1.9 | 19 | 10 | –
Cc1ccc(Nc2nccc(Nc3ccc4nc[nH]c4c3)n2)cc1 | > 18 | > 25 | 1.4 | –
Cc1cnc(Nc2ccc(S(N)(=O)=O)cc2)nc1Nc1ccc2nc[nH]c2c1 | 5.6 | 18 | 3.2 | –
CN1CCN(c2ccc(Nc3nccc(Nc4ccc5nc[nH]c5c4)n3)cc2)CC1 | > 38 | > 25 | 0.66 | Papp at 5 h, 10 µM [2]: 0.02 ×10⁻⁶ cm/s; inhibition at 0.5 h, 1 µM [3]: 91.3%; solubility [4]: 124 µM (≈ 49.7 µg/mL); inhibition at 0.5 h, 1 µM [5]: 7.9%; inhibition at 0.5 h, 1 µM [6]: 47.9%; inhibition at 0.5 h, 1 µM [7]: 89.3%; inhibition at 0.5 h, 1 µM [8]: 85%; inhibition at 0.5 h, 1 µM [9]: 69.2%; inhibition at 0.5 h, 1 µM [10]: 41.6%; logD at 6 h [11]: 2.3; CLH [12]: 0.8 mL/min/g; inhibition at 0.5 h, 1 µM [13]: 75.9%; inhibition at 0.5 h, 1 µM (Aurora kinase A): 20.6%
CN1CCN(c2ccc(Nc3nccc(Nc4ccc5cn[nH]c5c4)n3)cc2)CC1 | 12 | 7 | 0.6 | –
c1cc(Nc2nccc(Nc3ccc4cn[nH]c4c3)n2)cc(N2CCOCC2)c1 | 3.8 | 16 | 4.2 | –
CCc1nc(N)nc(N)c1-c1ccc(Cl)cc1 [PYRIMETHAMINE] | – | – | 0.004 | –
NS(=O)(=O)c1ccc(Nc2nccc(Nc3ccc4cn[nH]c4c3)n2)cc1 | 1.2 | 22 | 19 | –
CS(=O)(=O)Nc1cccc(Nc2nccc(Nc3ccc4nc[nH]c4c3)n2)c1 | > 8.9 | > 25 | 2.8 | –
Cc1cccc(Nc2ncc(Cl)c(Nc3ccc4nc[nH]c4c3)n2)c1 | 3.7 | 7.4 | 2 | –
NC(=O)c1ccc(Nc2nccc(Nc3ccc4cn[nH]c4c3)n2)cc1 | 3 | 16 | 5.4 | –
CN1CCN(c2ccc(Nc3ncc(C#N)c(Nc4ccccc4C(N)=O)n3)cc2)CC1 | – | – | 0.04 | cytotoxicity [14]: 43%
c1cc(Nc2nccc(Nc3ccc4nc[nH]c4c3)n2)cc(N2CCOCC2)c1 | 4 | 9.6 | 2.4 | –
C[C@H]1[C@@H](O)O[C@@H]2O[C@@]3(C)CC[C@H]4[C@H](C)CC[C@@H]1[C@@]24OO3 [ARTENIMOL] | – | – | 0.031 | –

SMILES | selectivity ratio [1] | IC50 (HepG2) [µM] | IC50 (Plasmodium falciparum) [µM] | other results
c1cc(Nc2ccc3nc[nH]c3c2)nc(Nc2ccc(N3CCOCC3)cc2)n1 | > 7.8 | > 25 | 3.2 | –
Cc1cccc(Nc2ncc([N+](=O)[O-])c(Nc3ccc4nc[nH]c4c3)n2)c1 | 28 | 22 | 0.78 | Papp at 5 h, 10 µM [2]: 3.8 ×10⁻⁶ cm/s; inhibition at 0.5 h, 1 µM [3]: 69.8%; solubility [4]: 1 µM (≈ 0.361 µg/mL); inhibition at 0.5 h, 1 µM [5]: 27.9%; inhibition at 0.5 h, 1 µM [6]: 43.2%; inhibition at 0.5 h, 1 µM [7]: 76.7%; inhibition at 0.5 h, 1 µM [8]: 25.3%; inhibition at 0.5 h, 1 µM [9]: 54.9%; inhibition at 0.5 h, 1 µM [10]: 83.8%; logD at 6 h [11]: 3.2; CLH [12]: 19 mL/min/g; inhibition at 0.5 h, 1 µM [13]: 91%; inhibition at 0.5 h, 1 µM (Aurora kinase A): 15.6%
CN1CCN(c2cccc(Nc3nccc(Nc4ccc5nc[nH]c5c4)n3)c2)CC1 | 13 | 11 | 0.87 | –
c1cc(Nc2ccc3cn[nH]c3c2)nc(Nc2ccc(N3CCOCC3)cc2)n1 | 3.6 | 8 | 2.2 | –
Cc1cccc(Nc2nccc(Nc3ccc4cn[nH]c4c3)n2)c1 | 4.2 | 15 | 3.6 | –
O=C(O)c1ccc(Nc2nccc(Nc3ccc4nc[nH]c4c3)n2)cc1 | > 3 | > 25 | 8.2 | –
NS(=O)(=O)c1ccc(Nc2nccc(Nc3ccc4nc[nH]c4c3)n2)cc1 | > 3 | > 25 | 8.2 | –
Brc1ccc(Nc2nccc(Nc3ccc4cn[nH]c4c3)n2)cc1 | 13 | 20 | 1.6 | –
Cc1c2ccc(Nc3ccnc(Nc4ccc(S(N)(=O)=O)cc4)n3)cc2nn1C | > 1.9 | > 25 | 13 | –
O[C@@H](c1cc(C(F)(F)F)nc2c(C(F)(F)F)cccc12)[C@H]1CCCCN1 [(S,R)-MEFLOQUINE] | – | – | 0.014 | –
CC(=O)c1ccc(NC(=O)Nc2ccc(N(C)c3ccnc(Nc4cccc(CS(C)(=O)=O)c4)n3)cc2)cc1 | – | – | 0.12 | cytotoxicity [14]: 86%
NS(=O)(=O)c1ccc(Nc2ncc(Cl)c(Nc3ccc4nc[nH]c4c3)n2)cc1 | 3.1 | 7.8 | 2.5 | –
Cc1cc(Nc2nccc(Nc3ccc4nc[nH]c4c3)n2)ccc1N1CCN(C)CC1 | 36 | 15 | 0.42 | Papp at 5 h, 10 µM [2]: 0.02 ×10⁻⁶ cm/s; inhibition at 0.5 h, 1 µM [3]: 71%; solubility [4]: 16 µM (≈ 6.63 µg/mL); inhibition at 0.5 h, 1 µM [5]: 2.9%; inhibition at 0.5 h, 1 µM [6]: 44.4%; inhibition at 0.5 h, 1 µM [7]: 108%; inhibition at 0.5 h, 1 µM [8]: 57.3%; inhibition at 0.5 h, 1 µM [9]: 57.8%; inhibition at 0.5 h, 1 µM [10]: 35.4%; logD at 6 h [11]: 2.9; CLH [12]: 1.8 mL/min/g; inhibition at 0.5 h, 1 µM [13]: 63.5%; inhibition at 0.5 h, 1 µM (Aurora kinase A): 15.7%
NS(=O)(=O)c1cccc(Nc2nccc(Nc3ccc4nc[nH]c4c3)n2)c1 | > 6 | > 25 | 4.2 | –
Brc1cccc(Nc2nccc(Nc3ccc4cn[nH]c4c3)n2)c1 | 6.5 | 17 | 2.6 | –
Cc1ccc(Nc2nccc(Nc3ccc4cn[nH]c4c3)n2)cc1 | 7.2 | 18 | 2.5 | –
